Results: patent publication US5968926A, “Antipsychotic method” (Novo Nordisk A/S, priority 1995, dated 1999)
Structures can show the parent of a compound that is named as a salt.

Key:
[1] = tested on: conditioned avoidance responding; test: Conditioned avoidance behavior in rats; assay type: in vivo, rat; conditions: 3.0 mg/kg s.c. 30 min before session, 50 trials
Excerpt: In a conditioned avoidance test, animals learn to respond during a conditioned stimulus in order to avoid mild shock presentation. A response during the conditioned stimulus is termed an avoidance respone, a response during shock is termed an escape response; a response failure is when the animal fails to respond during either the conditioned stimlus or the shock presentation and is indicative of motor impairment. […] Antipsychotic drugs decrease the percentage of avoidance responses without interfering with the ability of the animal to respond since the animals do emit escape responses. The percentage of response failures is considered a measure of motor impairment.
Rats were required to press a response lever in an experimental chamber in order to avoid or escape foot-shock. Each experimental session consisted of 50 trials. During each trial, the chamber was illuminated and a tone presented for a maximum of 10 sec. A response during the tone immediately terminated the tone and the houselight, ending the trial. In the absence of a response during the tone alone, tone+foot-shock (2.0 mA) was presented for a maximum of 10 sec. A response during shock presentation immediately terminated the shock, the tone and the houselight, ending the trial.
For drug screening, a dose of 3.0 mg/kg was administered s.c. 30 min before the start of the experimental session.

[2] = blood samples of treated patients, 17 patients, trial terminated; cited from earlier work

SMILES	Conditioned Avoidance % Avoidance Responses [1]	also measured
CCOc1nsnc1[C@H]1CN2CCC[C@H]1C2 (relative stereo) [Compound 19, Exo-6-(3-ethoxy-1,2,5-thiadiazol-4-yl)-1-azabicyclo[3.2.1]octane oxalate]	73%	–
CCCCSc1nsnc1[C@H]1CN2CCC[C@H]1C2 (relative stereo) [Compound 30, Exo-6-(3-butylthio-1,2,5-thiadiazol-4-yl)-1-azabicyclo[3.2.1]octane oxalate]	32%	–
CCSc1nsnc1[C@H]1CN2CCC[C@H]1C2 (relative stereo) [Compound 32, Exo-6-(3-ethylthio-1,2,5-thiadiazol-4-yl)-1-azabicyclo[3.2.1]octane oxalate]	46%	–
CCCSc1nsnc1[C@H]1CN2CCC[C@H]1C2 (relative stereo) [Compound 58, Exo-6-(3-propylthio-1,2,5-thiadiazol-4-yl)-1-azabicyclo[3.2.1]octane oxalate]	41%	–
CSc1nsnc1[C@H]1CN2CCC[C@H]1C2 (relative stereo) [Compound 74, Exo-6-(3-methylthio-1,2,5-thiadiazol-4-yl)-1-azabicyclo[3.2.1]octane oxalate]	22%	–
N#Cc1ccc(CSc2nsnc2[C@H]2CN3CCC[C@H]2C3)cc1 (relative stereo) [Compound 82, Exo-6-(3-(4-cyanobenzylthio)-1,2,5-thiadiazol-4-yl)-1-azabicyclo[3.2.1]octane oxalate]	24%	–
CCCOc1nsnc1[C@H]1CN2CCC[C@H]1C2 (relative stereo) [Compound 119, Exo-6-(3-propoxy-1,2,5-thiadiazol-4-yl)-1-azabicyclo[3.2.1]octane oxalate]	29%	–
CCCCOc1nsnc1[C@H]1CN2CCC[C@H]1C2 (relative stereo) [Compound 120, Exo-6-(3-butoxy-1,2,5-thiadiazol-4-yl)-1-azabicyclo[3.2.1]octane oxalate]	27%	–
CCCCSc1nsnc1C1CN2CCC1CC2.O=C(O)C(O)C(O)C(=O)O (single isomer, unassigned) [Compound 56, (+) 3-(3-Butylthio-1,2,5-thiadiazol-4-yl)-1-azabicyclo (2.2.2]octane (-) D-tartrate]	6%	–
CCCCSc1nsnc1C1CN2CCCC1C2 (single isomer, unassigned) [Compound 111, (-)-Exo-6-(3-butylthio-1,2,5-thiadiazol-4-yl)-1-azabicyclo[3.2.1]octane (+) L-tartrate]	–	Conditioned Avoidance % Avoidance Responses ([1]; 3 mg/kg): 8%
CCCCSc1nsnc1C1CN2CCCC1C2 (single isomer, unassigned) [Compound 112, (+)-Exo-6-(3-butylthio-1,2,5-thiadiazol-4-yl)-1-azabicyclo[3.2.1]octane (-) D-tartrate]	–	Conditioned Avoidance % Avoidance Responses ([1]; 3 mg/kg): 2%
CCCSc1nsnc1C1CN2CCCC1C2 (single isomer, unassigned; (+)) [Compound 113, (+)-Exo-6-(3-propylthio-1,2,5-thiadiazol-4-yl)-1-azabicyclo[3.2.1]octane (+) L-tartrate]	–	Conditioned Avoidance % Avoidance Responses ([1]; 3 mg/kg): 19%
CCCSc1nsnc1C1CN2CCCC1C2 (single isomer, unassigned; (-)) [Compound 114, (-)-Exo-6-(3-propylthio-1,2,5-thiadiazol-4-yl)-1-azabicyclo[3.2.1]octane (-) D-tartrate]	–	Conditioned Avoidance % Avoidance Responses ([1]; 3 mg/kg): 39%
CCOc1nsnc1C1CN2CCC1CC2.O=C(O)/C=C/C(=O)O (centres unmarked) [Compound 9, 3-(3-Ethoxy-1,2,5-thiadiazol-4-yl)-1-azabicyclo[2.2.2]octane fumarate]	65%	–
CCCCCCOc1nsnc1C1CN2CCC1CC2.O=C(O)/C=C/C(=O)O (centres unmarked) [Compound 11, 3-(3-Hexyloxy-1,2,5-thiadiazol-4-yl)-1-azabicyclo[2.2.2]octane fumarate]	11%	–
CCCCSc1nsnc1C1CN2CCC1CC2.O=C(O)/C=C/C(=O)O (centres unmarked) [Compound 13, 3-(3-Butylthio-1,2,5-thiadiazol-4-yl)-1-azabicyclo[2.2.2]octane fumarate]	18%	–
CCCCOc1nsnc1C1CN2CCC1CC2.O=C(O)C(=O)O (centres unmarked) [Compound 46, 3-(3-Butoxy-1,2,5-thiadiazol-4-yl)-1-azabicyclo[2.2.2]octane oxalate]	30%	–
CCSc1nsnc1C1CN2CCC1CC2.O=C(O)C(=O)O (centres unmarked) [Compound 52, 3-(3-Ethylthio-1,2,5-thiadiazol-4-yl)-1-azabicyclo[2.2.2]octane oxalate]	63%	–
CCCSc1nsnc1C1CN2CCC1CC2.O=C(O)C(=O)O (centres unmarked) [Compound 53, 3-(3-Propylthio-1,2,5-thiadiazol-4-yl)-1-azabicyclo[2.2.2]octane oxalate]	41%	–
O=C(O)/C=C/C(=O)O.c1ccc(OCCSc2nsnc2C2CN3CCC2CC3)cc1 (centres unmarked) [Compound 102, 3-(3-(2-Phenoxyethylthio)-1,2,5-thiadiazol-4-yl)-1-azabicyclo[2.2.2) octane fumarate]	3%	–
N#CCSc1nsnc1C1CN2CCC1CC2.O=C(O)C(=O)O (centres unmarked) [Compound 103, 3-(3-Cyanomethylthio-1,2,5-thiadiazol-4-yl)-1-azabicyclo[2.2.2]octane oxalate]	51%	–
O=C(O)/C=C/C(=O)O.c1csc(CCCSc2nsnc2C2CN3CCC2CC3)c1 (centres unmarked) [Compound 104, 3-(3-(3-(2-Thienyl)propylthio)-1,2,5-thiadiazol-4-yl)-1-azabicyclo[2.2.2]octane fumarate]	24%	–
Cn1nnnc1SCCCCSc1nsnc1C1CN2CCC1CC2 (centres unmarked) [Compound 106, oxalate]	55%	–
Cc1nnc(SCCCCSc2nsnc2C2CN3CCC2CC3)s1 (centres unmarked) [Compound 107, oxalate]	52%	–
CSc1nsnc1C1CN2CCC1CC2.O=C(O)C(=O)O (centres unmarked) [Compound 131, 3-(3-Methylthio-1,2,5-thiadiazol-4-yl)-1-azabicyclo[2.2.2]octane oxalate]	53%	–
Cc1cc2c(s1)Nc1ccc(F)cc1N=C2N1CCN(C)CC1 [flumezapine, 7-fluoro-2-methyl-10-(4-methyl-1-piperazinyl)-4H-thieno[2,3-b][1,5]-benzodiazepine]	–	enzyme levels: creatinine phosphokinase (CPK), SGOT, SGPT [2]: in substantial excess of normal values
